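All cell lines were grown in 96-well plates and treated with compound for 48 hours. TGI is the concentration that stops growth completely.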
Legend:
Assay in all cases: NCI-60 cell line screen, 48 h
BT-549 breast = system: BT-549 breast
SF-268 CNS = system: SF-268 CNS
T-47D breast = system: T-47D breast
A549 NSCLC = system: A549 NSCLC
RPMI-8226 leukemia = system: RPMI-8226 leukemia
MCF7 breast = system: MCF7 breast
HS 578T breast = system: HS 578T breast
SW-620 colon = system: SW-620 colon
OVCAR-4 ovarian = system: OVCAR-4 ovarian
UACC-62 melanoma = system: UACC-62 melanoma

Row | SMILES | TGI (BT-549 breast) | TGI (SF-268 CNS) | TGI (T-47D breast) | TGI (A549 NSCLC) | TGI (RPMI-8226 leukemia) | TGI (MCF7 breast) | TGI (HS 578T breast) | TGI (SW-620 colon) | TGI (OVCAR-4 ovarian) | TGI (UACC-62 melanoma)
1 | O=C1/C(=C/c2ccc(Cl)cc2)Oc2cc(O)ccc21 | > 100 µM | > 100 µM | > 100 µM | 91.7 µM | > 100 µM | > 100 µM | 46.6 µM | > 100 µM | > 100 µM | > 100 µM
2 | COc1ccc(-n2c(SC(CN3CCOCC3)CN3CCCC3=O)nc3ccccc3c2=O)cc1 (stereo not given) | > 100 µM | > 100 µM | > 100 µM | > 100 µM | > 100 µM | > 100 µM | > 100 µM | > 100 µM | > 100 µM | > 100 µM
3 | Oc1c(CN2CCCC2)ccc2cccnc12 | > 100 µM | > 100 µM | > 100 µM | > 100 µM | 48.2 µM | > 100 µM | > 100 µM | > 100 µM | > 100 µM | > 100 µM
4 | CC(C)(C)NC1=NC(C(F)(F)F)(C(F)(F)F)NC(=O)N1 | > 100 µM | > 100 µM | > 100 µM | > 100 µM | > 100 µM | > 100 µM | > 100 µM | > 100 µM | > 100 µM | > 100 µM
5 | Cc1ccc(Cc2cc(N3CCN(c4cccc(Cl)c4)CC3)nnc2C)cc1 | > 100 µM | > 100 µM | > 100 µM | > 100 µM | > 100 µM | > 100 µM | > 100 µM | > 100 µM | > 100 µM | > 100 µM
6 | O=C1/C(=C/c2ccc(O)cc2)CCCC1CN1CCCCC1 (stereo not given) | 6.89 µM | 11.9 µM | 5.21 µM | 31.9 µM | > 100 µM | 6.49 µM | 11.5 µM | 3.8 µM | 25.8 µM | 3.46 µM
7 | CCOC(=O)/C=C(/C(=O)OCC)n1cc(C)c(=O)n(Cc2cnnn2COCCOC(C)=O)c1=O | 31.7 µM | 42.5 µM | 46.7 µM | > 84.2 µM | 23.8 µM | 36 µM | 74 µM | > 55.6 µM | 47 µM | 30.5 µM
8 | Cc1nnc(N)nc1/C=C\c1ccc(Cl)cc1Cl | > 100 µM | > 100 µM | > 100 µM | > 100 µM | > 100 µM | > 100 µM | 99.2 µM | 51.3 µM | > 100 µM | > 100 µM
9 | COC(=O)CN(CC(=O)NCCCBr)C1CCCCC1N(CC(=O)OC)CC(=O)OC (stereo not given) | > 100 µM | > 100 µM | > 100 µM | > 100 µM | > 100 µM | > 100 µM | > 100 µM | > 100 µM | > 100 µM | > 100 µM
10 | Cc1cc2c(c(C(=O)NCC(=O)N[C@@H](C)C(=O)OCc3ccccc3)c1)Oc1c(cc(C)cc1C(=O)NCC(=O)N[C@@H](C)C(=O)OCc1ccccc1)S2 | > 100 µM | > 100 µM | 6.28 µM | > 100 µM | > 100 µM | > 100 µM | 80.1 µM | > 100 µM | > 100 µM | > 100 µM
11 | Clc1ccc(CCNC2(c3cc4ccccc4s3)CCCCC2)cc1Cl | 84.5 µM | > 100 µM | 46 µM | > 100 µM | 32.1 µM | 33.5 µM | > 100 µM | > 100 µM | > 100 µM | 37.2 µM
12 | C/C=C1/CN2CCC34c5ccccc5N(C)C23C2CC1C4(C(=O)OC)C(OC(C)=O)O2 (stereo not given) | > 100 µM | > 100 µM | > 100 µM | > 100 µM | > 100 µM | > 100 µM | > 100 µM | > 100 µM | > 100 µM | > 100 µM
13 | COC(=O)Nc1nc2ccc(S(=O)(=O)Nc3ccccn3)cc2[nH]1 | > 100 µM | > 100 µM | > 100 µM | > 100 µM | 40.6 µM | > 100 µM | > 100 µM | 66.6 µM | > 100 µM | > 100 µM
14 | O=C(NC(=S)Nc1ccc([N+](=O)[O-])cc1)c1ccc2c(c1)Sc1ccccc1O2 | > 100 µM | > 100 µM | > 100 µM | > 100 µM |  | > 100 µM | 79 µM | > 100 µM |  | > 100 µM
15 | O=C(c1ccccc1)N1CCN(C(=S)NC2CCCCC2)C1=S | 44.2 µM | 42.5 µM | 53.1 µM | 30.6 µM |  | 48.2 µM | 50.3 µM | 55.6 µM | 40.8 µM | 35.6 µM
16 | COC1=C[C@]2(CCC(=O)O2)[C@@H]2Cc3ccccc3[C@H](O)[C@@H]2C1=O | > 100 µM | > 100 µM | 37.7 µM | > 100 µM | 38.5 µM | > 100 µM | > 100 µM | 88.8 µM | > 100 µM | 65.1 µM
17 | COC(=O)CNC(=O)C(Cc1ccccc1)NC(=O)c1ccc(-c2ccc(Cl)cc2Cl)o1 (stereo not given) | > 100 µM | 69.8 µM | > 100 µM | > 100 µM | 51.9 µM | 62.1 µM | 52.1 µM | > 100 µM | > 100 µM | 65.1 µM
18 | CC(=O)OCC1OC(N2C(=O)NC(=O)C3C=C4CCCCC4=CC32)CC1OC(C)=O (stereo not given) | > 100 µM | > 100 µM | > 100 µM | > 100 µM | > 100 µM | > 100 µM | > 100 µM | > 100 µM | > 100 µM | > 100 µM
19 | COC(=O)c1c(O)ccc2c1c1cc3ccccc3cc1n2Cc1cc(OC)cc(OC)c1 | > 100 µM | > 26.9 µM | > 63.4 µM | > 100 µM | > 26.3 µM | > 100 µM | 8.5 µM | > 100 µM | > 66.9 µM | > 100 µM
20 | O=C1c2ccccc2C(=O)N1n1c(Cc2ccc(Cl)cc2)n[nH]c1=O | > 100 µM |  | > 100 µM | > 100 µM |  | > 100 µM | > 100 µM | > 100 µM | > 100 µM | > 100 µM
21 | N[C@H]1c2c(Br)sc(Br)c2C(=O)[C@H]1O | 16.5 µM | > 68.1 µM | 50.3 µM | 70.1 µM | 57.4 µM | 34.8 µM | > 87.8 µM | 25.8 µM | 27 µM | 23.7 µM
